# From ChEMBL document CHEMBL5108037, “Cyclic Peptide Screening Methods for Preclinical Drug Discovery” (J Med Chem, 2022)
# Legend:
# [1] = molecular target: T1, E3 ubiquitin-protein ligase Mdm2 (Homo sapiens, UniProt Q00987); assay: Inhibition of MDM2 (unknown origin) by Fluorescence polarization assay
# [2] = molecular target: T1, E3 ubiquitin-protein ligase Mdm2; assay: Binding affinity to MDM2 (unknown origin) by surface plasmon resonance analysis
# T1 sequence (Q00987 whole entry): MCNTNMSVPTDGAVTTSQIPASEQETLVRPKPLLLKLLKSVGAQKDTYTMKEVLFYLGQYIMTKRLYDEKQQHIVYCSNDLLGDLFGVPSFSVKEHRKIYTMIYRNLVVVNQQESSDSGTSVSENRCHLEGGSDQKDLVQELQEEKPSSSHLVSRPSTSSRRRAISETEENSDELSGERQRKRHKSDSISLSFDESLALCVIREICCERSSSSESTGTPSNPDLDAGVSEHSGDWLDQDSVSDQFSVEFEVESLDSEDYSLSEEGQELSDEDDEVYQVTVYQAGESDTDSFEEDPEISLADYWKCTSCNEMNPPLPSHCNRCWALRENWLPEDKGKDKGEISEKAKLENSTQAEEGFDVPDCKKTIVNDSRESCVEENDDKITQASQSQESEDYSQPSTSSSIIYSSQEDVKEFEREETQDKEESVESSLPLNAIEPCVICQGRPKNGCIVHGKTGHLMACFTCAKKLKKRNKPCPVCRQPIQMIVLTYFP
smiles,measurement,setting,value
CN1CCC(=O)NCCSCCS(=O)(=O)CCN(Cc2ccc(C#N)cc2)CC(=O)N[C@@H](Cc2cc3ccc(Cl)cc3[nH]2)C1=O,IC50,[1],0.6 µM
same,Kd,[2],5.5 µM
